We go through 15 molecules from patent US11795159B2 (priority 2021, dated 2023).

pIC50: −log10 of the molar value. Like-named read-outs stand apart in the source and are kept apart here.

For one experiment, the target named is SARS-CoV-2 3CLpro (Severe acute respiratory syndrome coronavirus 2 (2019-nCoV) (SARS-CoV-2), UniProt P0DTD1). In words: biochemical.
In a further experiment the test system is SARS-CoV-2. In words: microbe, parasite or virus in culture. To be noted: Severe acute respiratory syndrome coronavirus 2, 72 h, read-out: ID50 (Antiviral Data). Type of experiment: cell-based.
The mark [1] stands for this setting: IC50 (SARS-CoV-2 3CLpro Inhibition).
The mark [2] stands for this setting: read-out: IC50 (SARS-CoV-2 3CLpro Inhibition).

For `C/C=C/C(=O)N1CCCC1C(=O)N(c1ccc(C(C)(C)C)cc1)C(C(=O)NC(C)(C)C)c1cccnc1` (stereo not drawn) [Compound 8], at SARS-CoV-2 3CLpro (setting [1]), the pIC50 is 4.00 to 5.00.
For the molecule `C=CC(=O)N1CC[C@@H](C(=O)N(c2ccc(C(C)(C)C)cc2)C(C(=O)NC(C)(C)C)c2cccnc2)C1` (stereo partly drawn) [Compound 10], on SARS-CoV-2 3CLpro (setting [1]), the pIC50 was 4.00 to 5.00.
Take `C=CS(=O)(=O)N1CC[C@@H](C(=O)N(c2ccc(C(C)(C)C)cc2)C(C(=O)NC(C)(C)C)c2cccnc2)C1` (stereo partly drawn) [Compound 13]: the pIC50 in the experiment with SARS-CoV-2 and against SARS-CoV-2 3CLpro (setting [1]) was less than 4.00 throughout.
In the case of `C=CC(=O)N1CCCC1C(=O)N(c1ccc(C(C)(C)C)cc1)C(C(=O)NC(C)(C)C)c1cccnc1` (stereo not drawn) [Compound 12], the pIC50 with SARS-CoV-2 and against SARS-CoV-2 3CLpro (setting [1]) was less than 4.00 in each case.
Consider `C=CC(=O)N1CCC(C(=O)N(c2ccc(C(C)(C)C)cc2)C(C(=O)NC(C)(C)C)c2cccnc2)C1` (stereo not drawn) [Compound 9], for which the values for the pIC50 in the experiment with SARS-CoV-2 and on SARS-CoV-2 3CLpro (setting [1]) were less than 4.00 and 4.00 to 5.00, respectively.
As for `C=CS(=O)(=O)N1CCCC1C(=O)N(c1ccc(C(C)(C)C)cc1)C(C(=O)NC(C)(C)C)c1cccnc1` (stereo not drawn) [Compound 11], the pIC50 in the experiment with SARS-CoV-2 and on SARS-CoV-2 3CLpro (setting [1]) was less than 4.00 in each case.
For `C/C=C/C(=O)N1CCCC1C(=O)N(c1ccc(C(C)(C)C)cc1)C(C(=O)NC(C)(C)C)c1cccnc1` (stereo not drawn) [Compound 7], the pIC50 with SARS-CoV-2 is less than 4.00; against SARS-CoV-2 3CLpro (setting [1]), 5.00 to 6.00.
On the same counts, the results for `C=CC(=O)N1CCC(F)(F)CC1C(=O)N(c1ccc(C(C)(C)C)cc1)C(C(=O)NC(C)(C)C)c1cccnc1` (stereo not drawn) [Compound 15] are less than 4.00 and less than 4.00.
With `C=CC(=O)N1CCCC1C(=O)N(c1ccc(C(C)(C)C)cc1)C(C(=O)NC(C)(C)C)c1cccnc1` (stereo not drawn) [Compound 1], the pIC50 on SARS-CoV-2 3CLpro (setting [2]) was less than 4.00.
`C/C=C(\C)C(=O)N1CCCC1C(=O)N(c1ccc(C(C)(C)C)cc1)C(C(=O)NC(C)(C)C)c1cccnc1` (stereo not drawn) [Compound 3]: the pIC50 in the experiment with SARS-CoV-2 and against SARS-CoV-2 3CLpro (setting [1]) was less than 4.00 in each case.
On to `C=CS(=O)(=O)N1CC[C@@H](C(=O)N(c2ccc(C(C)(C)C)cc2)C(C(=O)NC(C)(C)C)c2cccnc2)C1` (stereo partly drawn) [Compound 14], for which the pIC50 on SARS-CoV-2 3CLpro (setting [2]) was less than 4.00.
`C=C(C)C(=O)N1CCCC1C(=O)N(c1ccc(C(C)(C)C)cc1)C(C(=O)NC(C)(C)C)c1cccnc1` (stereo not drawn) [Compound 2]: the pIC50 in the experiment on SARS-CoV-2 and against SARS-CoV-2 3CLpro (setting [1]) was less than 4.00 throughout.
On SARS-CoV-2 3CLpro (setting [1]), `C/C=C(\C)C(=O)N1CCC[C@@H]1C(=O)N(c1ccc(C(C)(C)C)cc1)C(C(=O)NC(C)(C)C)c1cccnc1` (stereo partly drawn) [Compound 6] gave a pIC50 of 4.00 to 5.00.
In the case of `C=C(C)C(=O)N1CCCC1C(=O)N(c1ccc(C(C)(C)C)cc1)C(C(=O)NC(C)(C)C)c1cccnc1` (stereo not drawn) [Compound 4], the pIC50 on SARS-CoV-2 3CLpro (setting [2]) was less than 4.00.
Consider `CCC(=O)N1CCCC1C(=O)N(c1ccc(C(C)(C)C)cc1)C(C(=O)NC(C)(C)C)c1cccnc1` (stereo not drawn) [Compound 5], for which the pIC50 with SARS-CoV-2 and against SARS-CoV-2 3CLpro (setting [1]) was less than 4.00 throughout.
